Reference: US20160194358A1, “LINEAR PEPTIDE ANTIBIOTCS” (priority 2013, published 2016)
In brackets after ≈: the same amount, converted by molar mass. Like-named read-outs stand apart in the source and are kept apart here. *1 amine or outer side, *2 acyl side, *3 side chain or, on linkers, in order; H or OH if unused. Where a SMILES comes first, the peptide text is derived from it. [ ]: non-standard residue; d: D form. The star is where a group is joined. boroAla((+)-pinanediol) = C[C@H](N*)B1O[C@@H]2C[C@@H]3C[C@@H](C3(C)C)[C@]2(C)O1; Biphenylcarbonyl(4'-Bu) = CCCCc1ccc(-c2ccc(C(=O)*)cc2)cc1; X5 = C[C@H](N*)B1OC2C[C@@H]3C[C@@H](C3(C)C)[C@]2(C)O1; Benzoyl(4-(4-Cl-Ph)) = O=C(c1ccc(-c2ccc(Cl)cc2)cc1)*; Ethanesulfonyl(2-NHDecyl) = CCCCCCCCCCNCCS(=O)(=O)*; Propanoyl(3-decylamino) = CCCCCCCCCCNCCC(=O)*; X16 = O=S(=O)(c1ccc(-c2ccc(Cl)cc2)cc1)*; X11 = CCCCc1ccc(-c2nc(C(=O)*)cs2)cc1; X33 = CC(C)(O)C#CC#Cc1ccc(C(=O)*)cc1; X10 = O=C(c1ccc(-c2ccc(Cl)cc2)nc1)*; X1 = C[C@H](N[*:1])C(=O)C(=O)[*:2]; X12 = C[C@H](N*)C(=O)c1nc2ccccc2o1; X23 = O=C(c1ccc(C#CC#CCCO)cc1)*; aThr = C[C@H](O)[C@H](N)C(=O)O; NHPhenethyl = c1ccc(CCN*)cc1; X22 = C[C@H](N*)C(=O)C(=O)O; Decanoyl = CCCCCCCCCC(=O)*; X7 = C[C@H](N*)C(=O)C1CO1; boroAla = C[C@H](N*)B(O)O; Octanoyl = CCCCCCCC(=O)*; Dab = NCC[C@H](N)C(=O)O; Dap = NC[C@H](N)C(=O)O

Key:
[1] = molecular target: S. aureus SPase (Staphylococcus aureus, UniProt P0A070); experiment: biochemical; conditions: IC 50 (nM) S. aureus, 20 μM substrate, 10 minutes preincubation
Description: Full length His-tagged S. aureus SPase protein was expressed similarly from E. coli BL21(DE3) containing the plasmid pCDF1-SaSpsB and purified similarly to the E. coli protein with the following exceptions. SPase protein was solubilized using 300 mM NaCl, 20 mM Tris pH 8.06, 5 mM Imidazole, 10% glycerol, 1% Triton X-100, prior to purification in Ni-NTA Superflow resin and resin bound protein was washed in a similar buffer containing 1% Elugent in place of Triton X-100 prior to protein eluted in wash buffer supplemented with 300 mM imidazole. […] All protein concentrations were determined by BCA assay.
(§1) Signal peptidase enzyme activity of the above proteins was measured using two fluorogenic peptide substrates (decanoyl-LSSPAYNO2A ? ADKabzPD and decanoyl-LTPTAYNO2A ? ASKKabzDD), where abz is the fluorescence donor 2-aminobenzamide, YNO2 is the fluorescence acceptor 3-nitrotyrosine, and the cleavage site is indicated with an arrow. Enzyme mix solution was prepared by diluting 2.5 nM of Escherichia coli or Staphylococcus aureus SPase protein into reaction buffers consisting of 20 mM PO4 pH 7.4, 100 mM NaCl, and 1% Elugent™ or octyl phenoxypolyethoxylethanol detergent at a concentration of 0.25% or 0.0625%. Reactions were initiated by the addition of substrate to a final concentration of 20 μM. Reaction progress was monitored by measuring the increase in fluorescence signal (excitation at 314 nm, emission at 416 nm) using a SpectraMax M2 fluorescence microplate reader. To determine IC50 values of test compounds, compound stock solutions were prepared in DMSO at a concentration of 1 mM. Three-folder serial dilutions of test compounds, starting at 10 μM, were prepared in enzyme mix solution and incubated at room temperature for 10 minutes. Following this incubation, fluorogenic substrate was added to a final concentration of 20 μM and the increase in fluorescence, corresponding to substrate cleavage, was monitored continuously at room temperature for 1 hour. Initial reaction rates were calculated based on the rate of increase in fluorescence during the reaction. Reaction rates were plotted as a function of compound concentration, and IC50 values are determined nonlinear regression analysis (SoftMaxPro 5.4, Molecular Devices™) of the sigmoidal dose-response curve.

[2] = tested on: Escherichia coli strain MC4100 IMP-4213, which harbors an LptD mutation; conditions: E. coli MC4100 IMP-4213, 35° C., 22 hours
Method in brief: (§2)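 CLSI broth microdilution in cation-adjusted Mueller Hinton Broth with 0.002% Tween-80, two-fold dilutions starting at 64 μg/ml.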

[3] = tested on: methicillin resistant Staphylococcus aureus (MRSA) strain USA300 (NRS384)
Method in brief: as §2

[4] = molecular target: T1, E. coli SPase (Escherichia coli, UniProt P00803); experiment: Biochemical SPase activity assay, fluorogenic peptide substrate, E. coli enzyme; conditions: 20 μM substrate, 10 minutes preincubation, read-out: IC 50 (nM) E. coli
T1 construct: Full length His-tagged E. coli SPase proteins; His; made in house; host or cells: E. coli BL21(DE3)
Description: Full length His-tagged E. coli SPase proteins were expressed in E. coli BL21(DE3) containing the plasmid pET23-lepB. Briefly, saturated overnight cultures grown in 20 ml of Luria-Bertani medium supplemented with ampicillin were subcultures into 1.5 L of Luria-Bertani, and shaken at 37° C. until an optical density at 600 nm of 0.4-0.5 was achieved.
as §1

[5] = MRSA USA300 (NRS384), 35° C., 22 hours

T1 sequence (P00803 whole entry): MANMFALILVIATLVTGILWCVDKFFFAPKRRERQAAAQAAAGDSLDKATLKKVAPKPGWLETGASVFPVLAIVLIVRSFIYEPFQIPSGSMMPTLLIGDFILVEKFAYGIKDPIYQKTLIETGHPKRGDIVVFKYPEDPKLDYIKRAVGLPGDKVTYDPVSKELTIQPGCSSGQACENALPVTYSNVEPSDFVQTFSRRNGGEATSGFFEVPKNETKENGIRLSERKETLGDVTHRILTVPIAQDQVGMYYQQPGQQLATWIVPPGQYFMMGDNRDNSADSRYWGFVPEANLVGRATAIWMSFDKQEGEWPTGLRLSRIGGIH
S. aureus SPase, sequence (P0A070 whole entry): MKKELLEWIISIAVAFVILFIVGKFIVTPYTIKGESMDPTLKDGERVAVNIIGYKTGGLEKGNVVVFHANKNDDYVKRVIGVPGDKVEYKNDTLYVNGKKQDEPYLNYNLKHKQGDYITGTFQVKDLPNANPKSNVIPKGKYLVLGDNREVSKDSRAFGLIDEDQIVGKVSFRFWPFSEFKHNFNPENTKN

SMILES	IC50 [1] [nM]	MIC (μg/mL) E. coli [2] [µg/mL]	MIC (μg/mL) S. aureus [3, 5] [µg/mL]	IC50 [4] [nM]	further results
C[C@H](NC(=O)[C@@H](NC(=O)[C@H](CN)NC(=O)c1ccc(-c2ccc(Cl)cc2)cc1)[C@@H](C)O)C(=O)N[C@@H](CCCCN)C(=O)N[C@@H](C)C(=O)c1nc2ccccc2o1 [Compound 214] ({Benzoyl(4-(4-Cl-Ph))}-[Dap]TAK-X12)	630	32 (≈ 40.4 µM)	64 (≈ 80.9 µM)	180	
CCCCc1ccc(-c2ccc(C(=O)N[C@@H](CCN)C(=O)N[C@H](C(=O)N[C@@H](C)C(=O)N[C@@H](CCCCN)C(=O)N[C@@H](C)C(=O)C3CO3)[C@@H](C)O)cc2)cc1 (single isomer, unassigned) [Compound 201 P1]	10			7	MIC (μg/mL) E. coli ([2]; listed as 201 P1): 1 µg/mL (≈ 1.33 µM); MIC (μg/mL) S. aureus ([3]; MRSA USA300 (NRS384), 35° C., 22 hours, listed as 201 P1): 0.09 µg/mL (≈ 0.12 µM)
CCCCc1ccc(-c2ccc(C(=O)N[C@@H](CCN)C(=O)N[C@@H](CCC(N)=O)C(=O)N[C@@H](C)C(=O)N[C@@H](CCCCN)C(=O)N[C@@H](C)B3OC4C[C@@H]5C[C@@H](C5(C)C)[C@]4(C)O3)cc2)cc1 (some centres unmarked) [Compound 122] ({Biphenylcarbonyl(4'-Bu)}-[Dab]QAK-X5)	240	0.2 (≈ 0.225 µM)	0.4 (≈ 0.451 µM)	20	
CCCCCCCCCC(=O)N[C@@H](CCN)C(=O)N[C@H](C(=O)N[C@@H](C)C(=O)N[C@@H](CCCCN)C(=O)N[C@@H](C)B1O[C@@H]2C[C@@H]3C[C@@H](C3(C)C)[C@]2(C)O1)[C@@H](C)O [Compound 117] (Decanoyl-[Dab]TAK-{boroAla((+)-pinanediol)})	150	8 (≈ 10.3 µM)	2 (≈ 2.57 µM)	20	
CCCCc1ccc(-c2ccc(C(=O)N[C@@H](CCN)C(=O)N[C@H](C(=O)N[C@@H](C)C(=O)N[C@@H](CCCCN)C(=O)N[C@@H](C)B3O[C@@H]4C[C@@H]5C[C@@H](C5(C)C)[C@]4(C)O3)[C@H](C)O)cc2)cc1 [Compound 125] ({Biphenylcarbonyl(4'-Bu)}-[Dab][aThr]AK-{boroAla((+)-pinanediol)})	280	0.4 (≈ 0.465 µM)	0.4 (≈ 0.465 µM)	10	
C[C@H](NC(=O)[C@@H](NC(=O)[C@H](CN)NC(=O)c1ccc(-c2ccc(Cl)cc2)cc1)[C@@H](C)O)C(=O)N[C@@H](CCCCN)C(=O)N[C@@H](C)C(=O)C(=O)NCCc1ccccc1 [Compound 110] ({Benzoyl(4-(4-Cl-Ph))}-[Dap]TAK[X1]-NHPhenethyl)	3800	64 (≈ 77.9 µM)	32 (≈ 39 µM)	6000	
CCCCc1ccc(-c2ccc(C(=O)N[C@@H](CCN)C(=O)N[C@H](C(=O)N[C@@H](C)C(=O)N[C@@H](CCCCN)C(=O)N[C@@H](C)C(=O)C3OC3C)[C@@H](C)O)cc2)cc1 (single isomer, unassigned) [Compound 205 P2]	> 10000			> 10000	MIC (μg/mL) E. coli ([2]; listed as 205 P2): 32 µg/mL (≈ 41.8 µM); MIC (μg/mL) S. aureus ([3]; MRSA USA300 (NRS384), 35° C., 22 hours, listed as 205 P2): >64 µg/mL
CCCCc1ccc(-c2nc(C(=O)N[C@@H](CCN)C(=O)N[C@H](C(=O)N[C@@H](C)C(=O)N[C@@H](CCCCN)C(=O)N[C@@H](C)B3O[C@@H]4C[C@@H]5C[C@@H](C5(C)C)[C@]4(C)O3)[C@@H](C)O)cs2)cc1 [Compound 121] (X11-[Dab]TAK-{boroAla((+)-pinanediol)})	280	1.3 (≈ 1.5 µM)	0.4 (≈ 0.461 µM)	54	
CCCCCCCCCC(=O)N[C@@H](CCN)C(=O)N[C@H](C(=O)N[C@@H](C)C(=O)N[C@@H](CCCCN)C(=O)N[C@@H](C)B(O)O)[C@@H](C)O [Compound 120] (Decanoyl-[Dab]TAK-boroAla)	120	11 (≈ 17.1 µM)	2.8 (≈ 4.35 µM)	21	
C[C@H](NC(=O)[C@H](CCCCN)NC(=O)[C@H](C)NC(=O)[C@@H](NC(=O)[C@H](CCCCN)NS(=O)(=O)c1ccc(-c2ccc(Cl)cc2)cc1)[C@@H](C)O)B1O[C@@H]2C[C@@H]3C[C@@H](C3(C)C)[C@]2(C)O1 [Compound 128] (X16-KTAK-{boroAla((+)-pinanediol)})	75	64 (≈ 70.9 µM)	2 (≈ 2.22 µM)	1200	
C[C@H](NC(=O)[C@H](CCCCN)NC(=O)[C@H](C)NC(=O)[C@@H](NC(=O)[C@H](CCN)NC(=O)c1ccc(-c2ccc(Cl)cc2)nc1)[C@@H](C)O)B1O[C@@H]2C[C@@H]3C[C@@H](C3(C)C)[C@]2(C)O1 [Compound 118] (X10-[Dab]TAK-{boroAla((+)-pinanediol)})	70	8 (≈ 9.53 µM)	2 (≈ 2.38 µM)	15	
CCCCc1ccc(-c2ccc(C(=O)N[C@@H](CCN)C(=O)N[C@H](C(=O)N[C@@H](C)C(=O)N[C@@H](CCCCN)C(=O)N[C@@H](C)C(=O)C3OC3C)[C@@H](C)O)cc2)cc1 (single isomer, unassigned) [Compound 203 P2]	1000			1500	MIC (μg/mL) E. coli ([2]; listed as 203 P2): 23 µg/mL (≈ 30 µM); MIC (μg/mL) S. aureus ([3]; MRSA USA300 (NRS384), 35° C., 22 hours, listed as 203 P2): 8 µg/mL (≈ 10.4 µM)
CCCCCCCC(=O)N[C@@H](CCN)C(=O)N[C@H](C(=O)N[C@@H](C)C(=O)N[C@@H](CCCCN)C(=O)N[C@@H](C)B1O[C@@H]2C[C@@H]3C[C@@H](C3(C)C)[C@]2(C)O1)[C@@H](C)O [Compound 114] (Octanoyl-[Dab]TAK-{boroAla((+)-pinanediol)})	250	32 (≈ 42.7 µM)	13 (≈ 17.3 µM)	64	
C[C@H](NC(=O)[C@@H](NC(=O)[C@H](CCN)NC(=O)c1ccc(-c2ccc(Cl)cc2)cc1)[C@@H](C)O)C(=O)N[C@@H](CCCCN)C(=O)N[C@@H](C)C(=O)C1CO1 (some centres unmarked) [Compound 216] ({Benzoyl(4-(4-Cl-Ph))}-[Dab]TAK-X7)		16 (≈ 21.9 µM)			MIC (μg/mL) S. aureus ([3]; USA300, 22 h): 1 µg/mL (≈ 1.37 µM)
C[C@H](NC(=O)[C@H](CCCCN)NC(=O)[C@H](C)NC(=O)[C@@H](NC(=O)[C@H](CCN)NC(=O)c1ccc(C#CC#CCCO)cc1)[C@@H](C)O)B1O[C@@H]2C[C@@H]3C[C@@H](C3(C)C)[C@]2(C)O1 [Compound 265] (X23-[Dab]TAK-{boroAla((+)-pinanediol)})		16 (≈ 19.5 µM)	16 (≈ 19.5 µM)		
CCCCCCCCCCNCCS(=O)(=O)N[C@@H](CCCCN)C(=O)N[C@H](C(=O)N[C@@H](C)C(=O)N[C@@H](CCCCN)C(=O)N[C@@H](C)B(O)O)[C@@H](C)O [Compound 238] ({Ethanesulfonyl(2-NHDecyl)}-KTAK-boroAla)		32 (≈ 41.8 µM)			MIC (μg/mL) S. aureus ([3]; USA300, 22 h): 0.18 µg/mL (≈ 0.235 µM)
C[C@H](NC(=O)[C@H](CCCCN)NC(=O)[C@H](C)NC(=O)[C@@H](NC(=O)[C@H](CCN)NC(=O)c1ccc(C#CC#CC(C)(C)O)cc1)[C@@H](C)O)B1O[C@@H]2C[C@@H]3C[C@@H](C3(C)C)[C@]2(C)O1 [Compound 264] (X33-[Dab]TAK-{boroAla((+)-pinanediol)})		4 (≈ 4.8 µM)	8 (≈ 9.59 µM)		
CCCCCCCCCCNCCC(=O)N[C@@H](CCCCN)C(=O)N[C@H](C(=O)N[C@@H](C)C(=O)N[C@@H](CCCCN)C(=O)N[C@@H](C)C(=O)C(=O)O)[C@@H](C)O [Compound 249] ({Propanoyl(3-decylamino)}-KTAK-X22)		>64			MIC (μg/mL) S. aureus ([3]; USA300, 22 h): 0.71 µg/mL (≈ 0.938 µM)
